Measurements from patent US8124371B2, “Compositions and methods for destabilizing lysosomes to increase oncogenic or aberrant protein degradation” (priority 2003, dated 2012).
Where a SMILES comes first, the peptide text is derived from it. [ ]: non-standard residue; d: D form. The star is where a group is joined. Nle = CCCC[C@H](N)C(=O)O; Cbz = O=C(OCc1ccccc1)*; CH2F = FC*

What was measured:
HA-tagged PML/RARα = experiment: In vitro degradation assay with lysates of NB4-S1 cells; format: biochemical; conditions: for blocking of PML/RARα degradation by lysates of arsenic-treated cells: inhibitor added to in vitro degradation assay
Experimental: Cell lysates of NB4-S1 cells, either treated for 72 hours with arsenic (1 μM) or left untreated, were obtained using a mild-lysis buffer that supported lysosomal enzymatic activity. In vitro degradation assays were performed using these lysates and HA-tagged PML/RARα was used as a target for degradation.

NB4-S1 APL cells [1] = experiment: Apoptosis, Hoechst staining of nuclear DNA; format: cell-based; conditions: 20 μM
Experimental: (§1) Cell differentiation was evaluated using a nitroblue tetrazolium reduction assay, wherein the presence blue formazan deposits under light microscopy is indicative of differentiated cells. Further, apoptosis was evaluated using Hoechst staining of nuclear DNA wherein the DNA was characterized morphologically by nuclear condensation and fragmentation of chromosomes.
The percentage of apoptotic cells was determined. This experiment was performed independently three times and three random fields were selected to assess the percentage of apoptotic cells.

[2] = tested on: retinoic acid-sensitive NB4-S1 APL cells; experiment: Growth suppression, cell counts (Coulter counter); format: cell-based; conditions: for growth suppressive activity: agent alone, chloroquine ranked over retinoic acid-sensitive and -resistant cells
Experimental: Three independent experiments were conducted.
To identify other agents which destabilize lysosomes, APL cells were contacted with test agents and the ability of the test agent to induce cell death was evaluated.

APL NB4-S1 cells = experiment: Cell differentiation, nitroblue tetrazolium reduction assay; format: cell-based; conditions: 20 μM, 6 days
Experimental: as §1

NB4-S1 cells = experiment: Lysosome destabilization, lysosome-specific targeting dye and confocal microscopy; format: cell-based; conditions: compared to untreated cells
Experimental: (§2) By way of illustration, arsenic was applied to APL, retinoic acid-sensitive NB4-S1 cells and found to rapidly (within 2 hours) destabilize lysosomes in these leukemic cells as compared to untreated cells in an assay using a lysosome-specific targeting dye and confocal microscopy. […] Conversely, cytochrome c (an activator of caspase-induced apoptosis) was not detected in the cytosol until 96 hours.

[3] = tested on: wild-type cystic fibrosis protein (CFTR); experiment: CFTR degradation by cell content of arsenic-exposed COS cells; format: biochemical; conditions: CFTR over-expressed in MDCK cells; cell content of COS exposed to arsenic
Excerpt: (§3) This arsenic-activated degradation program was also engaged by non-leukemic cells. […] Accordingly, this lysosome-dependent degradative pathway can be employed as a general therapeutic target for the destruction of oncogenic (e.g., PML/RARα) or aberrant (e.g., CFTR) proteins in the prevention and treatment of cancer or other diseases which are associated with said proteins. Further, lysosome destabilization can be used to identify other small molecule activators which, like arsenic, would have therapeutic activity via induced destabilization of lysosomes that would in turn eliminate oncogenic or other aberrant proteins by triggering their destruction.

NB4-S1 APL cells [4] = experiment: Release of lysosomal proteins / cytochrome c into the cytosolic fraction, SDS-PAGE and immunoblot; format: cell-based; conditions: after 1 μM arsenic treatment
Experimental: as §2

[5] = tested on: isolated lysosomes from NB4 APL cells; experiment: Degradation of isolated lysosomes in vitro
Excerpt: as §3

Compound: CCCC[C@@H](C=O)NC(=O)[C@H](CC(C)C)NC(=O)[C@H](CC(C)C)NC(C)=O [ALLN] (Ac-Leu-Leu-[Nle]-aldehyde)
- blocking of PML/RARα degradation by lysates of arsenic-treated cells (HA-tagged PML/RARα): did not block PML/RARα degradation

Compound: CCN(CC)CCCC(C)Nc1ccnc2cc(Cl)ccc12 (centres unmarked) [Chloroquine, 7-chloro-4-(4-diethylamino-1-methylbutylamino) quinoline]
- induction of apoptosis (NB4-S1 APL cells [1]): exposure time-dependent
- % Apoptosis (NB4-S1 APL cells [1]; 24 hours): 16%
- % Apoptosis (NB4-S1 APL cells [1]; 48 hours): 20%
- % Apoptosis (NB4-S1 APL cells [1]; 72 hours): 30%
- growth inhibitory effect in combination with retinoic acid ([2]; chloroquine 20 μM combined with retinoic acid 0.1 μM, FIG. 1A): additive growth inhibitory effect
- induction of differentiation (APL NB4-S1 cells): does not induce differentiation

Compound: CN(C)CCCN1c2ccccc2CCc2ccccc21 [Imipramine]
- growth suppressive activity [2]: some growth suppressive activity

Compound: CCCCCCCCCCCCC/C=C/[C@@H](O)[C@H](CO)NCCCCCCCC [N-octyl-D-erythro-sphingosine]
- growth suppressive activity [2]: some growth suppressive activity

Compound: [AsH3] [arsenic]
- time to destabilize lysosomes (NB4-S1 cells): ≤ 2 h
- CFTR degradation [3]: observed to be degraded
- cathepsin B detectable in the cytosolic fraction, earliest time (NB4-S1 APL cells [4]): 30 min
- cytochrome c not detected in the cytosol until (NB4-S1 APL cells [4]): 96 h
- lysosomal protein esterase detectable in the cytosolic fraction, earliest time (NB4-S1 APL cells [4]): 5 min
- degradation of isolated lysosomes upon treatment [5]: exhibited degradation in vitro
- PML/RARα degradation by cell lysates of treated NB4-S1 cells (HA-tagged PML/RARα; cells treated 72 hours, 1 μM, versus untreated cell lysates): rapidly degraded

Compound: CC(NC(=O)C(NC(=O)OCc1ccccc1)C(C)C)C(=O)NC(CC(=O)O)C(=O)CF (stereo not drawn) [zVAD] (Cbz-Val-Ala-Asp-CH2F; configuration not given here)
- blocking of PML/RARα degradation by lysates of arsenic-treated cells (HA-tagged PML/RARα): did not block PML/RARα degradation
